Results from ChEMBL document CHEMBL4346749, “Design, synthesis and evaluation of novel, potent DNA alkylating agents and their antibody-drug conjugates (ADCs)” (Bioorg Med Chem Lett, 2019).

What was measured:
Format in all cases: functional, cell-based
NAMALVA = assay: Cytotoxicity against human NAMALWA cells assessed as reduction in cell viability after 5 days by WST-8 assay; details: 120 h
KB = assay: Cytotoxicity against human KB cells assessed as reduction in cell viability after 5 days by WST-8 assay; details: 120 h
[1] = Cytotoxicity against human NCI-H2110 cells assessed as reduction in cell viability after 5 days by WST-8 assay; details: NCI-H2110, 120 h

Compound | IC50 (NAMALVA) | IC50 (KB) | IC50 [1]
COc1cc2c(cc1OCCCC(=O)Nc1cn(C)c(C(=O)Nc3ccc4sc(C(=O)NCC(C)(C)SSC)cc4c3)n1)N=C[C@@H]1Cc3ccccc3N1C2=O | 0.03 nM |  | 
COc1cc2c(cc1OCCCC(=O)Nc1cn(C)c(C(=O)Nc3ccc(-c4cc(C(=O)NCC(C)(C)SSC)n(C)c4)cc3)n1)N=C[C@@H]1Cc3ccccc3CN1C2=O | 0.001 nM | 0.006 nM | 0.01 nM
COC(=O)CCNC(=O)c1cc2cc(NC(=O)c3cc(NC(=O)CCCOc4cc5c(cc4OC)C(=O)N4c6ccccc6C[C@H]4C=N5)cn3C)ccc2s1 | 0.03 nM | 0.04 nM | 0.2 nM
COc1cc2c(cc1OCCCC(=O)Nc1cc(C(=O)Nc3ccc(-c4cc(C(=O)NCC(C)(C)SSC)n(C)c4)cc3)n(C)c1)N=C[C@@H]1Cc3ccccc3N1C2=O | 0.03 nM | 0.01 nM | 0.1 nM
COc1cc2c(cc1OCCCC(=O)Nc1cc(C(=O)Nc3ccc4sc(C(=O)NCC(C)(C)SSC)cc4c3)n(C)c1)N=C[C@@H]1Cc3ccccc3CN1C2=O | 0.002 nM | 0.005 nM | 0.03 nM
COc1cc2c(cc1OCCCC(=O)Nc1cn(C)c(C(=O)Nc3ccc4sccc4c3)n1)N=C[C@@H]1Cc3ccccc3N1C2=O | 0.02 nM | 0.04 nM | 0.08 nM
COc1cc2c(cc1OCCCC(=O)Nc1cc(C(=O)Nc3ccc4sc(C(=O)NCC(C)(C)SSC)cc4c3)n(C)c1)N=C[C@@H]1Cc3ccccc3N1C2=O | 0.01 nM | 0.08 nM | 0.3 nM
COC(=O)c1cc2cc(NC(=O)c3cc(NC(=O)CCCOc4cc5c(cc4OC)C(=O)N4c6ccccc6C[C@H]4C=N5)cn3C)ccc2s1 | 0.02 nM | 0.01 nM | 0.05 nM
COC(=O)CCNC(=O)c1cc2cc(NC(=O)c3nc(NC(=O)CCCOc4cc5c(cc4OC)C(=O)N4c6ccccc6C[C@H]4C=N5)cn3C)ccc2o1 | 0.06 nM | 0.08 nM | 0.5 nM
COC(=O)CCNC(=O)c1cc2cc(NC(=O)c3nc(NC(=O)CCCOc4cc5c(cc4OC)C(=O)N4c6ccccc6C[C@H]4C=N5)cn3C)ccc2s1 | 0.01 nM |  | 
COc1cc2c(cc1OCCCC(=O)Nc1cn(C)c(C(=O)Nc3ccc(-c4cc(C(=O)NCC(C)(C)SSC)n(C)c4)cc3)n1)N=C[C@@H]1Cc3ccccc3N1C2=O | 0.01 nM | 0.04 nM | 0.06 nM
COc1cc2c(cc1OCCCC(=O)Nc1nc(C(=O)Nc3ccc(NC(=O)CCC(C)(C)SSC)cc3)cs1)N=C[C@@H]1Cc3ccccc3N1C2=O | 0.03 nM | 0.1 nM | 0.6 nM
COC(=O)CCNC(=O)c1cc2cc(NC(=O)c3cc(NC(=O)CCCOc4cc5c(cc4OC)C(=O)N4c6ccccc6C[C@H]4C=N5)cn3C)ccc2o1 | 0.06 nM | 0.2 nM | 0.5 nM
COc1cc2c(cc1OCCCC(=O)Nc1cn(C)c(C(=O)Nc3ccc(NC(=O)CCC(C)(C)SSC)cc3)n1)N=C[C@@H]1Cc3ccccc3N1C2=O | 0.03 nM | 0.03 nM | 0.4 nM
COc1cc2c(cc1OCCCC(=O)Nc1cn(C)c(C(=O)Nc3ccc(N)cc3)n1)N=C[C@@H]1Cc3ccccc3N1C2=O | 0.06 nM | 0.2 nM | 0.4 nM
